Data as given in patent US20090281143A1, “Dose Reduction of a Cannabinoid CB1 Receptor Antagonist in the Treatment of Overweight or Obesity” (N-Gene Research Laboratories, Inc., priority 2007, published 2009).

Assay: Inhibition of body weight gain in high fat diet exposed mice
Settings: for weight gain in relation to that of the control group fed with standard laboratory chow: excess over chow control
Protocol: OF-1 female mice weighing about 18-20 g at the beginning of the experiment were used in the study. […] The high fat diet consisted of palatable food that contained 50% fat. The group on standard laboratory chow was also treated with vehicle. Treatment was performed with all of the drugs, orally, at 5 ppm. The weight of the animals was measured weekly.

SMILES: Cc1c(C(=O)NN2CCCCC2)nn(-c2ccc(Cl)cc2Cl)c1-c1ccc(Cl)cc1 [rimonabant, N-piperidino-5-(4-chlorophenyl)-1-(2,4-dichlorophenyl)-4-methylpyrazole-3-carboxamide]
- Body weight gain in g after 2 weeks (rimonabant 2 mg/kg daily oral, after 2 weeks): 10.6 g
- Body weight gain in g after 3 weeks (rimonabant 2 mg/kg daily oral, after 3 weeks): 14.1 g
- weight gain in relation to that of the control group fed with standard laboratory chow (rimonabant 2 mg/kg, after 2 weeks): 22%
- weight gain in relation to that of the control group fed with standard laboratory chow (rimonabant 2 mg/kg, after 3 weeks): 33%
- Body weight gain in g after 2 weeks (rimonabant 10 mg/kg daily oral, after 2 weeks): 10.2 g
- Body weight gain in g after 3 weeks (rimonabant 10 mg/kg daily oral, after 3 weeks): 13.0 g
- weight gain in relation to that of the control group fed with standard laboratory chow (rimonabant 10 mg/kg, after 2 weeks): 17%
- weight gain in relation to that of the control group fed with standard laboratory chow (rimonabant 10 mg/kg, after 3 weeks): 22.6%
